Patent publication US12691101B2, “Compound and method for preventing or treating of respiratory diseases comprising the same as an active ingredient” (YONSEI UNIVERSITY, UNIVERSITY - INDUSTRY FOUNDATION (UIF), priority 2019, dated 2026)

Assays:
CHO-K1 cells = assay: Cell viability, MTS colorimetric analysis, CHO-K1; assay type: cell-based, Chinese hamster; details: 24 hours, up to 30 μM
Procedure: (A) Pendrin-mediated Cl^−/I^− exchange activity (mean±S.E., n=5). The indicated concentration of F56 was pretreated for 10 minutes. (B, C) Representative tracing of intracellular pH. The application of Cl^− free solution induced intracellular alkalization through pendrin-mediated Cl^−/HCO3^− and Cl^−/OH^− exchange activity. The indicated concentration of F56 was pretreated for 10 minutes. (D-F) The pendrin-mediated Cl^−/I^− exchange activity was measured in CHO-K1 cells expressing human pendrin. The indicated concentration of F56, PDSinh-A01 and PDSinh-C01 was pretreated for 10 minutes. (G) Summary of dose-response of F56, PDSinh-A01 and PDSinh-C01 (mean±S.E., n=3). (H, I) Effect of F56, PDSinh-A01 and PDSinh-C01 on the cell viability in NIH3T3 (H) and CHO-K1 (I) cells. The cells were treated with F56, PDSinh-A01 and PDSinh-C01 for 24 hours. The cell viability was measured by MTS colorimetric analysis (mean±S.E., n=3). NTC, non-transfected cells.
The cells were treated with F10 for 24 hours. The cell viability was determined by MTS colorimetric analysis (mean±S.E., n=3).

[1] = target: T1, human wild-type (WT)-pendrin (Homo sapiens, UniProt O43511); assay: Pendrin-mediated Cl^−/OH^− exchange activity in CHO-K1 cells; assay type: cell-based
T1 construct: expressed in transfected cells
T1 sequence (O43511 1-780): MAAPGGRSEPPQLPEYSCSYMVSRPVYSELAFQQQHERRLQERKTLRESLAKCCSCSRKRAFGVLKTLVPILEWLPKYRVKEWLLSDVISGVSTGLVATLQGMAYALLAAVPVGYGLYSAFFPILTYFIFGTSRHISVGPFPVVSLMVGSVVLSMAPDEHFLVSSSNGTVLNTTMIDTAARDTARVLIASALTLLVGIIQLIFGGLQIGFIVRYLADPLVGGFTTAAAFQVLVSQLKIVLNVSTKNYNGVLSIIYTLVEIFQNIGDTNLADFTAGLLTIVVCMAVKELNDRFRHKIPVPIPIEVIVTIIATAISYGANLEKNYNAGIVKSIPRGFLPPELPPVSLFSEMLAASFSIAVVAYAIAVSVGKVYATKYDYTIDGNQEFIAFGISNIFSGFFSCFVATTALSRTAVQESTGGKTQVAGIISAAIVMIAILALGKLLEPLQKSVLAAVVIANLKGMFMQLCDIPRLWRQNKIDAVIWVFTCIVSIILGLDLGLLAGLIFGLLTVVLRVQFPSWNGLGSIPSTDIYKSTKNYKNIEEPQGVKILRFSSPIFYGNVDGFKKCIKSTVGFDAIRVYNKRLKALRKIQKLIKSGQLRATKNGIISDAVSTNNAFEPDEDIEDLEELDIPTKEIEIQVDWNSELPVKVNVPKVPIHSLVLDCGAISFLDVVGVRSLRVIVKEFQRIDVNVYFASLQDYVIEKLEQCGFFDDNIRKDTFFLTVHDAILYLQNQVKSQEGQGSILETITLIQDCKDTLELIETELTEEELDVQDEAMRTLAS
Procedure: For measurement of Cl^−/OH^− exchange activity, intracellular pH (pHi) was measured in WT-pendrin expressing CHO-K1 and HNE cells using pH sensor SNARF5-AM (Molecular Probes). The cells were treated with 5 μM SNARF5-AM for 30 minutes, and then were equipped in a perfusion chamber on the stage of a reverse fluorescence microscope (Nikon, Tokyo, Japan) equipped with a cooled charge-coupled device camera (Zyla sCMOS), image acquisition and analysis software (Meta Imaging Series 7.7). To measure the Cl^−/OH^− exchange activity, HEPES buffer solution was changed to CV-free HEPES buffer solution for generation of an Cl^− gradient driving Cl^− outflow and OH^− inflow of cytosol by pendrin.

PDS mRNA = assay: Real-time PCR of PDS mRNA in IL-4-treated HNE cells; assay type: cell-based, human; details: IL-4-treated HNE cells (F10: 120 hours after treatment)
Procedure: The total messenger RNA (mRNA) was extracted using TRIzol reagent (Invitrogen, Carlsbad, CA, USA), and was reverse-transcribed using a random hexamer primer, an oligo(dT) primer and SuperScript® III reverse transcriptase (Invitrogen). Quantitative real-time PCR was performed using StepOnePlus Real-Time PCR system (Applied Biosystems, Foster City, CA, USA) and Thunderbird SYBR qPCR mix (Tokyobo, Osaka, Japan). Thermal cycling conditions included the initial stage at 95° C. for 5 minutes, and subsequent 40 cycles at 95° C. for 10 seconds, at 55° C. for 20 seconds and at 72° C. for […].

[2] = target: T1, human wild-type (WT)-pendrin; assay: Pendrin-mediated Cl^−/SCN^− exchange activity in CHO-K1 cells; assay type: cell-based
Procedure: For measurement of Cl^−/SCN^− exchange activity, YFP fluorescence was measured in pendrin and halide sensor YFP expressing CHO-K1 cells. To measure the Cl^−/SCN^− exchange activity, HEPES buffer solution was changed to NaSCN-substituted HEPES buffer solution (140 mM NaSCN, 5 mM KCl, 1 mM MgCl2, 1 mM CaCl2, 10 mM glucose and 10 mM HEPES (pH 7.4)) for generation of an SCN^− gradient driving SCN^− inflow by pendrin. The YFP fluorescence change by SCN^− inflow was monitored using FLUOstar Omega microplate reader (BMG Labtech) and MARS data analysis software (BMG Labtech).

Row | SMILES | cytotoxicity in CHO-K1 cells (CHO-K1 cells) | inhibition of pendrin Cl^−/OH^− exchange activity [1] | PDS mRNA expression level (PDS mRNA) | inhibition of pendrin Cl^−/SCN^− exchange activity [2]
1 | CC(C)(C)c1ccc(C2=NC(=Cc3cccs3)C(=O)O2)cc1 [F56, 2-(4-(tert-butyl)phenyl)-4-(thiophen-2-ylmethylene)oxazol-5(4H)-one] | did not show cytotoxicity up to 30 μM | strongly inhibited | without changes of the mRNA expression level | strongly inhibited
2 | CC(C)(C)c1ccc(C2=NC(=Cc3ccc[nH]3)C(=O)O2)cc1 [F10, 4-((1H-pyrrol-2-yl)methylene)-2-(4-(tert-butyl)phenyl)oxazol-5 (4H)-one] | did not show any cytotoxicity up to 30 μM | strongly inhibit | did not show any effect | strongly inhibit
